# Measurements published in PubChem BioAssay (NCI).
#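 Where inhibition never reached the appropriate level, the endpoint shown equals the highest concentration tested. Otherwise, values were interpolated linearly from a five-concentration, 48-hour dose response in 96-well plates. At the TGI there is no net growth.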
# Assays:
# Test in all cases: growth of human tumour cells (NCI), 48 h
# [1] = tested on: 786-0 renal
# [2] = tested on: ACHN renal
# [3] = tested on: CAKI-1 renal
# [4] = tested on: CCRF-CEM leukemia
# [5] = tested on: DU-145 prostate
# [6] = tested on: EKVX NSCLC
# [7] = tested on: HCC-2998 colon
# [8] = tested on: HCT-116 colon
# [9] = tested on: HCT-15 colon
# [10] = tested on: HL-60(TB) leukemia
# [11] = tested on: HOP-62 NSCLC
# [12] = tested on: HT29 colon
# [13] = tested on: IGROV1 ovarian
# [14] = tested on: K-562 leukemia
# [15] = tested on: KM12 colon
# [16] = tested on: LOX IMVI melanoma
# [17] = tested on: M14 melanoma
# [18] = tested on: MALME-3M melanoma
# [19] = tested on: MCF7 breast
# [20] = tested on: MDA-MB-231 breast
# [21] = tested on: MDA-MB-435
# [22] = tested on: MDA-N
# [23] = tested on: MOLT-4 leukemia
# [24] = tested on: NCI-H226 lung
# [25] = tested on: NCI-H23 lung
# [26] = tested on: NCI-H460 lung
# [27] = tested on: NCI-H522 lung
# [28] = tested on: NCI/ADR-RES ovarian
# [29] = tested on: OVCAR-3 ovarian
# [30] = tested on: OVCAR-4 ovarian
# [31] = tested on: OVCAR-5 ovarian
# [32] = tested on: OVCAR-8 ovarian
# [33] = tested on: PC-3 prostate
# [34] = tested on: RPMI-8226 leukemia
# [35] = tested on: SF-268 CNS
# [36] = tested on: SF-539 CNS
# [37] = tested on: SK-MEL-2 melanoma
# [38] = tested on: SK-MEL-28 melanoma
# [39] = tested on: SK-MEL-5 melanoma
# [40] = tested on: SK-OV-3 ovarian
# [41] = tested on: SN12C renal
# [42] = tested on: SNB-19 CNS
# [43] = tested on: SNB-75 CNS
# [44] = tested on: SR leukemia
# [45] = tested on: SW-620 colon
# [46] = tested on: T-47D breast
# [47] = tested on: TK-10 renal
# [48] = tested on: U251 CNS
# [49] = tested on: UACC-257 melanoma
# [50] = tested on: UACC-62 melanoma
# [51] = tested on: UO-31 renal
# [52] = tested on: A498 renal
# [53] = tested on: A549 NSCLC
# [54] = tested on: COLO 205 colon
# [55] = tested on: SF-295 CNS
# [56] = tested on: HOP-92 NSCLC
# [57] = tested on: RXF 393 renal
structure (smiles),measurement,setting,value
COc1ccc2cc(C(=O)Nc3ccc(O)c(C(=O)O)c3)ccc2c1OC,TGI,[1],> 100 µM
same,TGI,[2],> 100 µM
same,TGI,[3],> 100 µM
same,TGI,[4],> 100 µM
same,TGI,[5],> 100 µM
same,TGI,[6],> 100 µM
same,TGI,[7],> 100 µM
same,TGI,[8],> 100 µM
same,TGI,[9],> 100 µM
same,TGI,[10],> 100 µM
same,TGI,[11],> 100 µM
same,TGI,[12],> 100 µM
same,TGI,[13],> 100 µM
same,TGI,[14],> 100 µM
same,TGI,[15],> 100 µM
same,TGI,[16],> 100 µM
same,TGI,[17],> 100 µM
same,TGI,[18],> 100 µM
same,TGI,[19],> 100 µM
same,TGI,[20],> 100 µM
same,TGI,[21],> 100 µM
same,TGI,[22],> 100 µM
same,TGI,[23],> 100 µM
same,TGI,[24],> 100 µM
same,TGI,[25],> 100 µM
same,TGI,[26],> 100 µM
same,TGI,[27],> 100 µM
same,TGI,[28],> 100 µM
same,TGI,[29],> 100 µM
same,TGI,[30],> 100 µM
same,TGI,[31],> 100 µM
same,TGI,[32],> 100 µM
same,TGI,[33],> 100 µM
same,TGI,[34],> 100 µM
same,TGI,[35],> 100 µM
same,TGI,[36],> 100 µM
same,TGI,[37],> 100 µM
same,TGI,[38],> 100 µM
same,TGI,[39],> 100 µM
same,TGI,[40],> 100 µM
same,TGI,[41],> 100 µM
same,TGI,[42],> 100 µM
same,TGI,[43],> 100 µM
same,TGI,[44],> 100 µM
same,TGI,[45],> 100 µM
same,TGI,[46],> 100 µM
same,TGI,[47],> 100 µM
same,TGI,[48],> 100 µM
same,TGI,[49],> 100 µM
same,TGI,[50],> 100 µM
same,TGI,[51],> 100 µM
CN(C)c1ccc(/C=c2/c3ccccc3n3c2cc(-c2ccc(Cl)cc2)[n+]3C)cc1,TGI,[52],3.45 µM
same,TGI,[53],1.87 µM
same,TGI,[2],1.46 µM
same,TGI,[3],0.782 µM
same,TGI,[54],0.211 µM
same,TGI,[5],1.13 µM
same,TGI,[6],2.41 µM
same,TGI,[7],1.95 µM
same,TGI,[11],1.48 µM
same,TGI,[15],0.264 µM
same,TGI,[21],1.18 µM
same,TGI,[22],1.23 µM
same,TGI,[23],> 100 µM
same,TGI,[24],1.68 µM
same,TGI,[26],0.656 µM
same,TGI,[28],> 89.3 µM
same,TGI,[29],1.34 µM
same,TGI,[30],2.51 µM
same,TGI,[31],2.33 µM
same,TGI,[33],1.01 µM
same,TGI,[34],0.566 µM
same,TGI,[55],1.77 µM
same,TGI,[36],0.748 µM
same,TGI,[37],0.845 µM
same,TGI,[38],1.9 µM
same,TGI,[39],0.362 µM
same,TGI,[40],1.45 µM
same,TGI,[42],1.33 µM
same,TGI,[45],1.31 µM
same,TGI,[46],1.38 µM
same,TGI,[48],1.09 µM
same,TGI,[49],1.08 µM
O=C1C(=O)c2c(O)ccc(O)c2C(O)=C1Cl,TGI,[1],> 100 µM
same,TGI,[52],> 100 µM
same,TGI,[53],> 100 µM
same,TGI,[3],> 100 µM
same,TGI,[4],> 100 µM
same,TGI,[54],> 100 µM
same,TGI,[5],> 100 µM
same,TGI,[6],> 100 µM
same,TGI,[7],> 100 µM
same,TGI,[8],> 100 µM
same,TGI,[9],> 100 µM
same,TGI,[10],> 100 µM
same,TGI,[11],> 100 µM
same,TGI,[56],> 100 µM
same,TGI,[12],> 100 µM
same,TGI,[13],> 100 µM
same,TGI,[14],> 100 µM
same,TGI,[15],> 100 µM
same,TGI,[17],> 100 µM
same,TGI,[18],78.3 µM
same,TGI,[19],> 100 µM
same,TGI,[20],> 100 µM
same,TGI,[22],> 100 µM
same,TGI,[25],> 100 µM
same,TGI,[26],> 100 µM
same,TGI,[28],> 100 µM
same,TGI,[29],> 100 µM
same,TGI,[30],> 100 µM
same,TGI,[31],> 100 µM
same,TGI,[32],> 100 µM
same,TGI,[33],> 100 µM
same,TGI,[34],> 100 µM
same,TGI,[57],> 100 µM
same,TGI,[35],> 100 µM
same,TGI,[55],> 100 µM
same,TGI,[36],> 100 µM
same,TGI,[38],> 100 µM
same,TGI,[39],> 100 µM
same,TGI,[42],> 100 µM
same,TGI,[43],> 100 µM
same,TGI,[44],> 100 µM
same,TGI,[45],> 100 µM
same,TGI,[46],> 100 µM
same,TGI,[47],> 100 µM
same,TGI,[48],> 100 µM
same,TGI,[49],> 100 µM
same,TGI,[50],> 100 µM
same,TGI,[51],> 100 µM
